We go through five compounds from patent publication US20240033208A1, “BOTANICAL EXTRACT BLEND FOR USE IN SKIN CARE” (Shaklee Corporation, priority 2022, published 2024).

Assay [1] has as its system AGE formation in collagen. Nature of the assay: Collagen AGE prevention assay. Format: biochemical. The method, then:
AGE Prevention—50 μl of ice-cold collagen solution was added to the wells of a 96 well plate. The plate was incubated overnight at 37° C. to allow the collagen solution to gel. On the following day, 40 μl of either test material (prepared in assay buffer), aminoguanidine (positive control), or assay buffer (negative control) was added to the plate. After the materials were added, 10 μl of a 500 mM glyceraldehyde solution was added to all of the wells. The plate was then read using a fluorometer (355 nm excitation and 405 nm emission) and then incubated for 24 hours in a humidified incubator at 37C. On the following day the plate was read again. AGE formation was determined by subtracting the […] for each sample.

In assay [2] the test system is preexisting AGEs in collagen. Description: Collagen AGE reduction assay. Format: biochemical. The method, then: AGE Reduction—50 μl of ice-cold collagen solution was added to the wells of a 96 well plate. The plate was then incubated overnight at 37C to allow the collagen solution to gel. On the following day, 10 μl of a 500 mM glyceraldehyde solution was added to all of the wells and the plate was incubated for 24 hours in a humidified incubator at 37° C. On the following day 40 μl of either test material (prepared in assay buffer), aminoguanidine (positive control), or assay buffer (negative control) was added to the plate. The plate was then read using a fluorometer (355 nm excitation and 405 nm emission) and then incubated again for 24 hours in a humidified incubator at 37C. On the following day the plate was read again. AGE formation was determined by subtracting the initial fluorescent measurement from the final fluorescent measurement for each sample.

Another assay deals with T1, human recombinant MMP-1 (Homo sapiens, UniProt P03956).
T1 sequence (P03956 100-469): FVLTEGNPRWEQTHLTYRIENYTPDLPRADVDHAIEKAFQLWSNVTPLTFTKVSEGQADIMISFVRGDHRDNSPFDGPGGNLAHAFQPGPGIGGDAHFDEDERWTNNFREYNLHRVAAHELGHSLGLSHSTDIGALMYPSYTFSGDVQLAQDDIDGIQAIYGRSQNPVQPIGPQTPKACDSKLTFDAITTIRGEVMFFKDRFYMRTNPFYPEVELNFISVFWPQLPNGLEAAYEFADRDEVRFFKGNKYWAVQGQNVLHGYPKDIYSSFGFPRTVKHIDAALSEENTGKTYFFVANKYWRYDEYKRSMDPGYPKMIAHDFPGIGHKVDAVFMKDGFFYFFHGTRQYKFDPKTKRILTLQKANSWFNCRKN
Nature of the assay: Collagenase (MMP-1) inhibition (thiopeptolide/DTNB, 412 nm). The format is biochemical. From the text: Matrix Metalloproteinase-1 (MMP-1) is an extracellular protease with an approximate molecular weight of 52-56 kD in its latent form. Upon cleavage of the proenzyme, the 22-46 kD MMP-1 becomes an active enzyme and can degrade many substrates including collagen, gelatin, and entactin. In human skin, increased MMP-1 activity can be induced via some disease states, exposure to UV irradiation or as part of the natural aging process. This can result in an imbalanced state where the degradation of collagen by MMP-1 exceeds its rate of replacement. Therefore, materials that inhibit MMP-1 activity can be beneficial for skin care. To screen inhibitors of MMP-1, human recombinant MMP-1 was incubated in the presence of a thiopeptolide substrate, potential inhibitors, and 5,5′-dithiobis(2-nitrobenzoic acid) (DTNB). When the thiopeptolide substrate is broken down by MMP-1, it releases a sulfhydryl group that can react with DTNB and form 2-nitro-5-thiobenzoic acid, which can be detected spectrophotometrically at 412 nm. Thus, in the presence of inhibitors, absorbance will be decrease relative to the non-inhibited enzyme.

The next assay concerns elastase. Description: Elastase inhibition (fibroblast lysate, STANA substrate, 405 nm). The format is biochemical, human. The method, then: Human dermal fibroblasts were cultured and used as a source of the elastase enzyme. Elastase was partially purified from fibroblasts by lysing the cells in an elastase buffer and retaining the soluble portion of the lysate. Portions of this fibroblast lysate were then be incubated with test materials and a synthetic elastase substrate, Suc-([…])-p-Nitroaniline (STANA). Elastase acts upon the substrate, releasing p-nitroaniline, which can be detected with a spectrophotometer by measuring absorbance at a wavelength of 405 nm. Inhibition of elastase enzyme is indicated by a decrease in the amount of released p-nitroaniline as compared to the uninhibited enzyme.

Assay [3] deals with MatTek EpiDerm tissue (UVB induced CPD formation in genomic DNA). Nature of the assay: Cyclobutane pyrimidine dimer (CPD) assay, UVB, ELISA. Format: cell-based, human. The following applies: for CPD in genomic DNA: pretreated overnight before UVB. The method, then: The testing system used for this assay was the MatTek EpiDerm, a skin model which consists of normal human-derived epidermal keratinocytes cultured to form a multilayered, highly differentiated model of the human epidermis. For this study, tissues were treated topically either overnight with the test materials prior to UVB exposure (pretreat group to assess prevention). Following treatment, DNA was extracted from the EpiDerm tissues and assayed for CPD content using an ELISA based method.
(In an ELISA, binding on a coated surface is turned into a signal by an enzyme label.)

Setting [4] is: ingredients tested individually at the concentrations used in the blends.

As for `N=C(N)NN` [Aminoguanidine, aminoguanidine, reference compound], the “Percent AGE Prevention” value in assay [1] (8 mM) was determined as 56.8 ± 0.5%. Moreover, the “Percent AGE Reduction” value in assay [2] (8 mM) came out at 33.4 ± 3.3%.
With `COc1ccc(S(=O)(=O)N(CC(=O)NO)CC(C)C)cc1` [NNGH, reference compound], the “Percent Inhibition (collagenase)” value on human recombinant MMP-1 (2 uM) worked out at 94 ± 3%.
For the compound `CC(C)C[C@H](NP(=O)(O)O[C@@H]1O[C@@H](C)[C@H](O)[C@@H](O)[C@H]1O)C(=O)N[C@@H](Cc1c[nH]c2ccccc12)C(=O)O` [Phosphoramidon, reference compound], the “Percent Inhibition (elastase)” value with elastase (0.2 mM) is listed as 97 ± 0%.
Regarding `Oc1ccc(/C=C/c2cc(O)cc(O)c2)cc1` [Resveratrol, 5-[(E)-2-(4-Hydroxyphenyl)ethen-1-yl]benzene-1,3-diol], the “Percent Inhibition (collagenase)” value on human recombinant MMP-1 (0.075%) was found to be 4 ± 0%; on human recombinant MMP-1 (0.08%), 7 ± 1%. Also, the figures for the “Percent AGE Prevention” value in assay [1] (0.0375%) and in assay [1] (0.075%) were 20.8 ± 2.4% and 38.4 ± 7.1%, respectively. The “preventing AGE formation (in words)” value in assay [1] (setting [4]) was “significantly effective”. Also, the “Percent AGE Reduction” value in assay [2] (0.0375%) worked out at 28.2 ± 1.2%; in assay [2] (0.075%) it was 32.8 ± 2.8%. In addition, in assay [2] (setting [4]), the “reducing existing AGEs (in words)” value is given as “significantly effective”. Moreover, the results for the “Percent Inhibition (elastase)” value in the assay on elastase (0.075%) and with elastase (0.08%) were 30 ± 3% and 33 ± 2%, respectively. For the same compound, the “elastase inhibition (in words)” value with elastase (summary of Table 10) is listed as “effective at inhibiting elastase activity on its own”. For the same compound, the “% Prevention of genomic DNA CPD formation” value in assay [3] (0.0375%) stood at 63%; in assay [3] (0.075%) it was 75%. Further, the “CPD in genomic DNA” value in assay [3] (0.0375%) worked out at 1.601 ± 0.180 ng/mL; in assay [3] (0.075%), 1.115 ± 0.085 ng/mL.
For the compound `Cc1c(C)c2c(c(C)c1O)CCC(C)(C(=O)O)O2` (stereo not drawn) [Trolox, reference compound], in assay [3] (150 ug/ml), the “% Prevention of genomic DNA CPD formation” value stood at 67% and the “CPD in genomic DNA” value was found to be 1.439 ± 0.088 ng/mL.
